Laboratory results as given in article PMC12070314, “Efficient Small-Molecule Reversal Agents for Anticoagulant Fondaparinux” (ACS Pharmacology & Translational Science, 2025).

What was measured:
[1] = test system: FXa/ATIII inhibited by LMWH; experiment: In vitro FXa/ATIII enzymatic assay with LMWH; assay type: biochemical, human; settings: [LMWH] = [antidote] = 0.1 or 10 μM, Figure S3
Procedure: Recombinant antithrombin III and coagulation factor Xa were obtained from two different kits, Berichrom Heparin test (SIEMENS) and Kinetichrome Anti-Xa Heparin kit (Iduron). Methods for both kits are similar, but not identical. Differences will be spotted by method A (SIEMENS) and method B (Iduron). Following the manufacturer’s instructions, stock solutions were prepared as follows: human antithrombin III (1 IU/mL) and factor Xa reagent (0.4 μg/mL, human plasma fraction with additives Tris, sodium chloride, and EDTA). Chromogenic substrate specific for factor Xa was dissolved at 4 mM concentration (A: Z-D-Leu-Gly-Arg-ANBA-methyl amide, and B: Z-D-Arg-Gly-Arg-pNA). Additionally, either 4-nitroaniline (A) or N-Boc-4-nitroaniline (B) was added to the substrate solution at a concentration of 1.6 mM and used as an internal standard to quantify the hydrolysis of the chromogenic substrate. All compounds were dissolved in Milli-Q water at the desired stock concentrations prior to start of the assays and kept at 4 °C. […] FXa/ATIII activity was represented as the percent of hydrolysis, which was calculated from the normalized area of the cleaved peptide at 405 nm at each corresponding time point. […]

[2] = test system: A549 cells; experiment: MTT cell viability assay; assay type: cell-based; settings: A549, concentrations <100 μM
Procedure: (§1) A549 and HeLa cells were maintained in DMEM ([…] glucose, Sigma) containing 10% fetal calf serum (FCS), 2 mM glutamine, 50 U/mL penicillin, and […] streptomycin at 37 °C under a 5% CO2 atmosphere. HMEC-1 and fibroblast cells were maintained in MCDB 131 medium (GIBCO) containing 10% fetal calf serum (FCS), 2 mM glutamine, 50 U/mL penicillin, and […] streptomycin at 37 °C under a 5% CO2 atmosphere.
(§2) The viability of A549 and HeLa cells was tested using the 3-(4,5-dimethylthiazol-2-yl)-2,5-diphenyltetrazolium bromide (MTT) assay. In it, exponentially growing cells were detached from the culture flasks using a trypsin–0.25% EDTA solution, and the cell suspension was seeded onto a 96-well plate (Nunclon) at a concentration of 9k cells/well. The toxicity of 3AC and 3FF was tested as follows: 24 h after seeding, culture medium was discarded and replaced by compound solution in PBS that was diluted with cell culture medium to the final concentration: [3××] = 10 to 100 μM. MTT (0.5 mg/mL) was added. […] Absorbance was measured at 570 nm using a spectrophotometric BioTek Synergy 2 Microplate Reader (Agilent), 30 min after the addition of DMSO. Cell viability is expressed as an absorbance percent ratio of cells treated with compound to untreated cells, which were used as a control. The results are the average from three independent experiments.

[3] = test system: HeLa cells; experiment: MTT cell viability assay; assay type: cell-based; settings: concentrations <100 μM
Procedure: as §1, §2

[4] = earlier work of the authors; reference number not given; read-out: Apparent affinity for heparin, K D^app; cited from earlier work

| Structure (SMILES) | Percent recovery of peptide substrate hydrolysis vs LMWH [1] | Cell viability (toxicity) [2] | Cell viability (toxicity) [3] | Kd [4] [nM] |
| --- | --- | --- | --- | --- |
| Oc1ccccc1CNCCCNCCCCNCCCNCc1ccc2c(c1)Cc1ccccc1-2 [Compound 3AC] | more active than prot and similar to cir | low to acceptable cell toxicity | low to acceptable cell toxicity | ~500 |
| Oc1ccc2ccccc2c1CNCCCNCCCCNCCCNCc1c(O)ccc2ccccc12 [Compound 3FF] | more active than prot and similar to cir | low to acceptable cell toxicity | low to acceptable cell toxicity |  |
